Source: ChEMBL document CHEMBL1201862, “PubChem BioAssay data set” (2004)
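Results reflect a 48-hour exposure of cells in 96-well plates to compound at five concentrations. GI50 = concentration required for 50% inhibition of growth.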 The source made the active and inactive calls. Cut-off read from the data, not from the text of the source: active = GI50 up to about 1.1 µM and inactive = higher.

Key:
Test in all cases: growth of human tumour cells (NCI), 48 h
[1] = system: CAKI-1
[2] = system: HCT-15
[3] = system: HOP-62
[4] = system: HT-29
[5] = system: IGROV-1
[6] = system: MDA-MB-231
[7] = system: NCI-H226
[8] = system: NCI-H522
[9] = system: OVCAR-5
[10] = system: RPMI-8226
[11] = system: RXF 393
[12] = system: SK-MEL-5
[13] = system: SNB-19
[14] = system: TK-10
[15] = system: U-251
[16] = system: UACC-257
[17] = system: UACC-62
[18] = system: UO-31
[19] = system: COLO 205
[20] = system: SK-OV-3

Structure (SMILES)	GI50 [1]	GI50 [2] [µM]	GI50 [3]	GI50 [4]	GI50 [5]	GI50 [6]	GI50 [7]	GI50 [8]	GI50 [9]	GI50 [10]	GI50 [11]	GI50 [12]	GI50 [13]	GI50 [14]	GI50 [15]	GI50 [16]	GI50 [17]	GI50 [18]	GI50 [19]	GI50 [20]
NC(Cc1ccccc1)P(=O)(O)O (configuration not stated)	> 100 µM (inactive)	> 100	> 100 µM (inactive)	> 100 µM (inactive)	> 100 µM (inactive)	> 100 µM (inactive)	> 100 µM (inactive)	> 100 µM (inactive)	> 100 µM (inactive)	> 100 µM (inactive)	> 100 µM (inactive)	> 100 µM (inactive)	> 100 µM (inactive)	> 100 µM (inactive)	> 100 µM (inactive)	> 100 µM (inactive)	> 100 µM (inactive)	> 100 µM (inactive)		
CCCC(C)NC(=O)c1ccc(N(C)Cc2cnc3nc(N)nc(N)c3n2)cc1 (configuration not stated)	34 µM (inactive)	26.4	29.5 µM (inactive)	17.6 µM (inactive)	17.7 µM (inactive)	27.5 µM (inactive)	19.1 µM (inactive)		29.3 µM (inactive)	91 µM (inactive)	26.2 µM (inactive)	10.1 µM (inactive)	22.6 µM (inactive)	31.3 µM (inactive)	14.8 µM (inactive)	15.9 µM (inactive)	6.3 µM (inactive)	46.1 µM (inactive)	28.2 µM (inactive)	41.6 µM (inactive)
C=CCn1c(S)nnc1C12CC3CC(CC(C3)C1)C2		44.3	> 100 µM (inactive)	50.1 µM (inactive)	> 100 µM (inactive)	> 100 µM (inactive)	> 100 µM (inactive)	25 µM (inactive)	> 100 µM (inactive)	36.7 µM (inactive)	> 100 µM (inactive)		> 100 µM (inactive)	50.7 µM (inactive)	86.9 µM (inactive)	52.2 µM (inactive)	90.8 µM (inactive)	33 µM (inactive)	> 100 µM (inactive)	> 100 µM (inactive)
c1ccc(CSC2(SCc3ccccc3)CCCCC2)cc1	> 10 µM (inactive)	> 10	> 10 µM (inactive)	> 10 µM (inactive)	> 10 µM (inactive)	> 10 µM (inactive)	> 10 µM (inactive)	> 10 µM (inactive)		> 10 µM (inactive)	> 10 µM (inactive)	> 10 µM (inactive)	> 10 µM (inactive)	> 10 µM (inactive)	> 10 µM (inactive)	> 10 µM (inactive)	> 10 µM (inactive)	> 10 µM (inactive)	> 10 µM (inactive)	> 10 µM (inactive)
O[C@@H]1C[C@@H]2N[C@@](O)(C[C@@H]2O)[C@H]1O		> 100	> 100 µM (inactive)	> 100 µM (inactive)	> 100 µM (inactive)	> 100 µM (inactive)	> 100 µM (inactive)	> 100 µM (inactive)	> 100 µM (inactive)	> 100 µM (inactive)	> 100 µM (inactive)	> 100 µM (inactive)	> 100 µM (inactive)	> 100 µM (inactive)	> 100 µM (inactive)	> 100 µM (inactive)	> 100 µM (inactive)	> 100 µM (inactive)	> 100 µM (inactive)	> 100 µM (inactive)
CCCCn1c(C)c(C(=O)OCC)s/c1=N/Nc1nc2ccccc2nc1-c1ccccc1	> 100 µM (inactive)	> 100	30.8 µM (inactive)	> 100 µM (inactive)	75.7 µM (inactive)	39.3 µM (inactive)	78.5 µM (inactive)	41.2 µM (inactive)	> 100 µM (inactive)	86.3 µM (inactive)	> 100 µM (inactive)	46.8 µM (inactive)	40.6 µM (inactive)	> 100 µM (inactive)	43.6 µM (inactive)	> 100 µM (inactive)	> 100 µM (inactive)		> 100 µM (inactive)	53.3 µM (inactive)
CCCN(CCC)C(=O)c1c(N2CCN(C)CC2)c2cccnc2n2c(C)cnc12	60.8 µM (inactive)	> 100	> 100 µM (inactive)	> 100 µM (inactive)	> 100 µM (inactive)	> 100 µM (inactive)	> 100 µM (inactive)	33.1 µM (inactive)	> 100 µM (inactive)	> 100 µM (inactive)	24.8 µM (inactive)	> 100 µM (inactive)	27.5 µM (inactive)	> 100 µM (inactive)	> 100 µM (inactive)	> 100 µM (inactive)	> 100 µM (inactive)	70 µM (inactive)	> 100 µM (inactive)	
O=C1c2ccccc2C(=O)N1c1ccc(OCCN2CCCCC2)cc1	> 100 µM (inactive)	> 100	> 100 µM (inactive)	> 100 µM (inactive)	> 100 µM (inactive)	> 100 µM (inactive)	> 100 µM (inactive)	> 100 µM (inactive)	> 100 µM (inactive)	> 100 µM (inactive)	> 100 µM (inactive)	> 100 µM (inactive)	> 100 µM (inactive)	> 100 µM (inactive)	> 100 µM (inactive)	> 100 µM (inactive)	> 100 µM (inactive)		> 100 µM (inactive)	> 100 µM (inactive)
O=S(=O)(Nc1nc2ccccc2nc1Nc1cccc2ccccc12)c1ccccc1	31.8 µM (inactive)		13.9 µM (inactive)		5.9 µM (inactive)	13.6 µM (inactive)	40.6 µM (inactive)		> 100 µM (inactive)	2.73 µM (inactive)	17.5 µM (inactive)	10.7 µM (inactive)	20.1 µM (inactive)	8.93 µM (inactive)	5.52 µM (inactive)	39.4 µM (inactive)	8.59 µM (inactive)	2.43 µM (inactive)		19.9 µM (inactive)
CC1(C)C(CCO)CC1n1cc(I)c(=O)[nH]c1=O (configuration not stated)	> 100 µM (inactive)	> 100	> 100 µM (inactive)			86.3 µM (inactive)	> 100 µM (inactive)		> 100 µM (inactive)	> 100 µM (inactive)	> 100 µM (inactive)	> 100 µM (inactive)	> 100 µM (inactive)	> 100 µM (inactive)	75.3 µM (inactive)	> 100 µM (inactive)	21.1 µM (inactive)	> 100 µM (inactive)	> 100 µM (inactive)	> 100 µM (inactive)
O=C(CCCCCCCCC(=O)N1C(=O)CC(=O)N(c2ccccc2)C1=S)N1C(=O)CC(=O)N(c2ccccc2)C1=S	> 100 µM (inactive)	> 100	> 100 µM (inactive)	> 100 µM (inactive)		> 100 µM (inactive)		> 100 µM (inactive)	> 100 µM (inactive)	> 100 µM (inactive)	> 100 µM (inactive)	> 100 µM (inactive)	> 100 µM (inactive)	> 100 µM (inactive)	> 100 µM (inactive)	> 100 µM (inactive)	> 100 µM (inactive)	> 100 µM (inactive)	> 100 µM (inactive)	> 100 µM (inactive)
CCO[C@]12CCC[C@H]1[C@@H]1C(=O)c3ccccc3C(=O)C1=C(C)O2	55.8 µM (inactive)	> 100	> 100 µM (inactive)	> 100 µM (inactive)	> 100 µM (inactive)	> 100 µM (inactive)		> 100 µM (inactive)	> 100 µM (inactive)	29.2 µM (inactive)	20.5 µM (inactive)	33.7 µM (inactive)	> 100 µM (inactive)	> 100 µM (inactive)	36.3 µM (inactive)	> 100 µM (inactive)	> 100 µM (inactive)	> 100 µM (inactive)	> 100 µM (inactive)	> 100 µM (inactive)
O=[N+]([O-])c1ccc2c(c1)S(=O)(=O)N1Cc3ccccc3CCN21	> 100 µM (inactive)	> 100	> 100 µM (inactive)	> 100 µM (inactive)	> 100 µM (inactive)	> 100 µM (inactive)	> 100 µM (inactive)	> 100 µM (inactive)	> 100 µM (inactive)	> 100 µM (inactive)	> 100 µM (inactive)	> 100 µM (inactive)	35 µM (inactive)	> 100 µM (inactive)	45.1 µM (inactive)	29.1 µM (inactive)	> 100 µM (inactive)	> 100 µM (inactive)	> 100 µM (inactive)	
CC1=CC(=O)/C(=C/n2c(=S)[nH]c3ccccc32)C(=O)O1	> 100 µM (inactive)	> 100	> 100 µM (inactive)	> 100 µM (inactive)	> 100 µM (inactive)	> 100 µM (inactive)	> 100 µM (inactive)	> 100 µM (inactive)	> 100 µM (inactive)	> 100 µM (inactive)	51.5 µM (inactive)		> 100 µM (inactive)	> 100 µM (inactive)	> 100 µM (inactive)	> 100 µM (inactive)	> 100 µM (inactive)	> 100 µM (inactive)	> 100 µM (inactive)	> 100 µM (inactive)
COc1ccc(NC(C)=O)c(C(O)CCNC(C)=O)c1 (configuration not stated)	> 100 µM (inactive)	> 100		> 100 µM (inactive)	> 100 µM (inactive)	> 100 µM (inactive)	> 100 µM (inactive)	> 100 µM (inactive)	> 100 µM (inactive)	> 100 µM (inactive)	> 100 µM (inactive)	> 100 µM (inactive)	> 100 µM (inactive)	> 100 µM (inactive)	> 100 µM (inactive)	> 100 µM (inactive)	> 100 µM (inactive)	> 100 µM (inactive)	> 100 µM (inactive)	> 100 µM (inactive)
